Experimental findings from paper PMC11091889, “Silver Organometallics that are Highly Potent Thioredoxin and Glutathione Reductase Inhibitors: Exploring the Correlations of Solution Chemistry with the Strong Antibacterial Effects” (ACS Infectious Diseases, 2024) are described below.

The test system of assay [1] is K. pneumoniae (DSM 11678, ATCC33495). The experiment in a line: Broth microdilution antibacterial assay. In kind it is cell-based, Klebsiella pneumoniae. Particulars: n = 3, MHB; for MIC K. pneumoniae / EC50: mean ± standard error; for MIC K. pneumoniae / MIC K. pneumoniae (value in brackets): 22 h; for EC50: read-out: EC50 K. pneumoniae. A digest of the protocol:
(§1)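 Broth microdilution used 2–8 × 10^5 CFU/mL inocula, with compounds serially diluted 64 to 1 μg/mL and incubated 22 h at 37 °C, read at 600 nm. A. baumannii, K. pneumoniae and P. aeruginosa were grown in MHB pH 7.4; E. faecium was grown in TSY pH 7.0–7.2. MIC and EC50 were obtained by curve fitting from three independent experiments.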
On the technique in general: Dilution methods test growth across graded concentrations, often in twofold steps.

In assay [2] the test system is A. baumannii (DSM 30007, ATCC 19606). The experiment in a line: Broth microdilution antibacterial assay. In kind it is cell-based, Acinetobacter baumannii. Particulars: n = 3, MHB; for MIC A. baumannii / EC50: mean ± standard error; for MIC A. baumannii / MIC A. baumannii (value in brackets): 22 h; for EC50: read-out: EC50 A. baumannii. A digest of the protocol: as §1

Assay [3] relates to S. aureus MRSA (DSM 11822, ICB 25701). Briefly: microbe, parasite or virus in culture. In kind it is cell-based, methicillin resistant S. aureus. Particulars: n = 3, TSY; for MIC MRSA / EC50: mean ± standard error; for MIC MRSA / MIC MRSA (value in brackets): 22 h; for EC50: read-out: EC50 MRSA. In outline: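 Broth microdilution in TSY (30 g/L trypticase soy broth, 3 g/L yeast extract, pH 7.0–7.2), inoculum 2–8 × 10^5 CFU/mL, compounds serially diluted 64 to 1 μg/mL, 22 h at 37 °C. Growth read as absorbance at 600 nm; MIC and EC50 obtained by curve fitting, three independent experiments.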

The test system of assay [4] is P. aeruginosa (PA 14) biofilm. Briefly: Inhibition of biofilm formation, crystal violet staining. In kind it is cell-based, Pseudomonas aeruginosa. Particulars: for smallest active concentration for biofilm inhibition: concentration at which the % inhibition was found; for biofilm inhibition: ± SD, n = 4, at the respective smallest active concentration, 24 h. An excerpt: Silver and its complexes can strongly affect the growth of biofilms.[56]−[58] In view of the promising activity against Gram-negative bacteria as mentioned above, we evaluated the inhibiting effect of the silver complexes on biofilm production by P. aeruginosa by a method based on crystal violet staining (Table 4 and Figure S14). Complexes 3a–c and 4a–c were selected for the test based on the results of solubility, stability, and antibacterial screening. […] The lower activity of 3c might be explained by its lower kinetic solubility in the aqueous environment (see Figure 4).
The antibiofilm activity was determined according to a literature method.[73] A 1 mL aliquot of P. aeruginosa (PA 14) was taken from −20 °C stock, incubated in 25 mL LB medium (Luria–Bertani Broth) in a 250 mL flask, and kept at 37 °C at 100 rpm overnight. The optical density at 600 nm (OD600) of the culture solution was adjusted to match the turbidity of a 0.1 McFarland standard in M63 medium.[74] Selected compounds were mixed with 150 μL of bacterial solution in U-bottom 96 well plates to the final respective concentrations (25–0.2 μg/mL). The plates were further incubated at 37 °C for 24 h while shaking at 150 rpm. Afterward, the plates were rinsed once with 150 μL of PBS buffer, and the biofilms were stained using 150 μL of crystal violet (0.1%) staining at room temperature for 15 min and then rinsed once with PBS buffer. After rinsing, 150 μL of ethanol (95%) was added, and the absorbance was quantified using a plate reader (Synergy 2, BioTek, Santa Clara, USA) at 550 nm. The resulting antibiofilm activity is presented as percentage of inhibition at the respective smallest active concentration in μM with standard deviation (SD) of two repeats with duplicates. Myxovalargin A and DMSO (2.5%) were used as the positive and negative controls, respectively.

Assay [5] has as its target T1, glutathione reductase (GR) from baker's yeast (Saccharomyces cerevisiae, UniProt P41921).
T1 construct: purchased Sigma-Aldrich
T1 sequence (P41921 17-483 limits assumed): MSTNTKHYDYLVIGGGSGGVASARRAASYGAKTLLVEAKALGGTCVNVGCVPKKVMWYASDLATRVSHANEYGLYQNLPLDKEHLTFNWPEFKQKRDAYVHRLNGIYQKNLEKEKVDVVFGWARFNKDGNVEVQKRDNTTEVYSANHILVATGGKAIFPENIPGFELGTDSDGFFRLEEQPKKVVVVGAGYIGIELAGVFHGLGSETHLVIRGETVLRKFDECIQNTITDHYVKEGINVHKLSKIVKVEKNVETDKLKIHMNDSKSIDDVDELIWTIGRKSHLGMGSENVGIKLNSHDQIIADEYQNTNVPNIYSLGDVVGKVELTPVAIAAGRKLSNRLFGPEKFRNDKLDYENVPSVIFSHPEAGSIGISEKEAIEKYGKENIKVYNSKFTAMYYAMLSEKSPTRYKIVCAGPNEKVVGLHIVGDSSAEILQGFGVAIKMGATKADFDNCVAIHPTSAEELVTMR
The experiment in a line: GR inhibition assay (DTNB reduction). In kind it is biochemical. Particulars: ± standard deviation, n = 3, 75 min preincubation.
Experimental: (§2) The inhibition of purified E. coli thioredoxin reductase (TrxR) and glutathione reductase (GR) from both E. coli and baker’s yeast was determined according to a previously applied procedure.[59],[60]
(§3) The TrxR (E. coli) and GR (baker’s yeast and E. coli) inhibition assays were performed according to previously published procedures.[62],[75] The assays are partly based on the procedure developed by Lu et al.[60] and make use of the reduction of 5,5′-dithiobis(2-nitrobenzoic acid) (DTNB). Solutions of E. coli TrxR (35.4 U/mL) and E. coli thioredoxin (Trx) (156 μg/mL) (both purchased from Sigma-Aldrich) or baker’s yeast GR (0,08 U/mL, Sigma-Aldrich) or E. coli GR (4.2 U/ml, Antibodies online) and GSSG (0.28 mM, Sigma-Aldrich) in distilled water were prepared, as were fresh 2 mM stock solutions of the test compounds in DMSO. Then, solutions with several concentrations of the test compounds in DMSO were prepared, and 35 μL of each solution was diluted with 965 μL of TE buffer (Tris–HCl 50 mM, EDTA 1 mM, pH 7.5). These solutions (20 μL) or TE buffer without the test compounds (20 μL, as control) were mixed with the TrxR or GR solutions (10 μL), the Trx or GSSG solutions (10 μL), and a solution of NADPH (200 μM) in TE buffer (100 μL) in a well on a 96-well plate. As a blank solution, 200 μM NADPH in TE buffer (100 μL) mixed with a DMSO/buffer mixture (40 μL) was used (final concentrations of DMSO: 0.5% v/v). The plate was incubated for 75 min at 25 °C with moderate shaking. After incubation, 100 μL of a reaction mixture (TE buffer containing 200 μM NADPH and 5 mM DTNB) was added to each well to initiate the reaction. After thorough mixing, the formation of 5-TNB was monitored by a microplate reader at 405 nm in 35 s intervals (10 measurements). The values were corrected by subtraction of the blank solution absorption values. The increase in the concentration of 5-TNB followed a linear trend (r^2 ≥ 0.990), and the enzymatic activities were calculated as the gradients (increase in absorbance per second) thereof. […] The inhibition is presented as the mean IC50 values and standard deviations obtained in three independent experiments.

For assay [6], the target named is E. coli thioredoxin reductase (TrxR) (Escherichia coli, UniProt P0A9P4). Particulars: read-out: IC50 TrxR from E. coli; ± standard deviation, n = 3, 75 min preincubation.
Experimental: as §2, §3

Bounds are passed on as bounds.

Chain of E. coli thioredoxin reductase (TrxR) (P0A9P4 whole entry): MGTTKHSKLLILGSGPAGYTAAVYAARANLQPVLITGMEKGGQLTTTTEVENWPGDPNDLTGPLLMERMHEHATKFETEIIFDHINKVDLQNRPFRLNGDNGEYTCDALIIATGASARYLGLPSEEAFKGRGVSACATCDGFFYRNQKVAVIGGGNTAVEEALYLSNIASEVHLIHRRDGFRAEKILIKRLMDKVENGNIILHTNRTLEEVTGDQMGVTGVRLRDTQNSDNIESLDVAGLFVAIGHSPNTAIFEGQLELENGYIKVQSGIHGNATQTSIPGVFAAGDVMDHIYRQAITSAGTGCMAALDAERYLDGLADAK

Consider `CC(C)n1[c](=[Ag][Cl])n(Cc2ccccn2)c2ccccc21` [3a, Chlorido (1-Isopropyl-3-(pyridin-2-ylmethyl)-benzimidazol-2-ylidene) Silver(I)], for which, in assay [1], the “MIC K. pneumoniae” value is 13.5 ± 3.4 µM, the EC50 worked out at 9.8 ± 2.4 µM and the “MIC K. pneumoniae (value in brackets)” value worked out at 5 µg/mL. Also, in assay [2], the “MIC A. baumannii” value came out at 13.5 ± 3.4 µM, the 50% effective concentration (EC50) amounted to 1.8 ± 0.3 µM and the “MIC A. baumannii (value in brackets)” value stood at 5 µg/mL. Also, in assay [3], the “MIC MRSA” value is 162 ± 0.0 µM, the EC50 turned out to be 88.6 ± 1.6 µM and the “MIC MRSA (value in brackets)” value stood at 64 µg/mL. In assay [4], the “smallest active concentration for biofilm inhibition” value came to 7.9 µM and the biofilm inhibition amounted to 71 ± 4%. The compound also returned a 50% inhibitory concentration (IC50) in assay [5] of 0.044 ± 0.004 µM. For the same compound, in assay [6], the IC50 is 0.103 ± 0.008 µM.

For the compound `CC(C)n1[c](=[Ag][Br])n(Cc2ccccn2)c2ccccc21` [3b, Bromido (1-Isopropyl-3-(pyridin-2-ylmethyl)-benzimidazol-2-ylidene) Silver(I)], in assay [1], the “MIC K. pneumoniae” value stood at 18.2 ± 0.0 µM, the EC50 came to 8.6 ± 0.2 µM and the “MIC K. pneumoniae (value in brackets)” value is 8 µg/mL. In addition, in assay [2], the “MIC A. baumannii” value is 15.2 ± 3.0 µM, the EC50 is 0.53 ± 0.14 µM and the “MIC A. baumannii (value in brackets)” value came to 7 µg/mL. For the same compound, in assay [3], the “MIC MRSA” value came to 146 ± 0.0 µM, the half-maximal effective concentration (EC50) came out at 78.8 ± 0.4 µM and the “MIC MRSA (value in brackets)” value worked out at 64 µg/mL. Further, in assay [4], the “smallest active concentration for biofilm inhibition” value turned out to be 7.1 µM and the biofilm inhibition is reported as 74 ± 5%. Also, the IC50 in assay [5] is 0.041 ± 0.006 µM. The IC50 in assay [6] worked out at 0.092 ± 0.008 µM.

Take `CC(C)n1[c](=[Ag][I])n(Cc2ccccn2)c2ccccc21` [3c, Iodido (1-Isopropyl-3-(pyridin-2-ylmethyl)-benzimidazol-2-ylidene) Silver(I)]: in assay [1], the “MIC K. pneumoniae” value stood at 4.11 ± 0.0 µM, the concentration giving a half-maximal response (EC50) is 2.3 ± 0.3 µM and the “MIC K. pneumoniae (value in brackets)” value was found to be 2 µg/mL. In assay [2], the “MIC A. baumannii” value amounted to 4.11 ± 0.0 µM, the EC50 amounted to 1.9 ± 0.1 µM and the “MIC A. baumannii (value in brackets)” value stood at 2 µg/mL. Further, in assay [3], the “MIC MRSA” value is > 132 µM, the 50% effective concentration (EC50) is > 132 µM and the “MIC MRSA (value in brackets)” value is > 64 µg/mL. Besides, in assay [4], the “smallest active concentration for biofilm inhibition” value is 13.0 µM and the biofilm inhibition was found to be 55 ± 19%. In assay [5], the IC50 came to 0.049 ± 0.004 µM. In assay [6], the IC50 was found to be 0.122 ± 0.015 µM.

For `COCCn1[c](=[Ag][I])n(Cc2ccccn2)c2ccccc21` [4c, Iodido (1-(2-Methoxyethyl)-3-(pyridin-2-ylmethyl)-benzimidazol-2-ylidene) Silver(I)], in assay [1], the “MIC K. pneumoniae” value amounted to 4.0 ± 0.0 µM, the EC50 turned out to be 2 µM and the “MIC K. pneumoniae (value in brackets)” value turned out to be 2 µg/mL. Besides, in assay [2], the “MIC A. baumannii” value stood at 9.3 ± 3.5 µM, the concentration giving a half-maximal response (EC50) came out at 1.9 ± 0.1 µM and the “MIC A. baumannii (value in brackets)” value was 5 µg/mL. Moreover, in assay [3], the “MIC MRSA” value was > 128 µM, the EC50 was > 128 µM and the “MIC MRSA (value in brackets)” value was > 64 µg/mL. Besides, in assay [4], the “smallest active concentration for biofilm inhibition” value was 6.2 µM and the biofilm inhibition amounted to 66 ± 6%.

As a reminder, the EC50 is the concentration that produces a half-maximal response. As a reminder, the IC50 is the point on the concentration scale where inhibition reaches its midpoint.
